Assay results taken from US12263172B2, “Toll-like receptor agonists for use in the treatment of hepatitis b” (priority 2019, dated 2025).
Values joined by “and” are separate entries in the source; they are usually repeats but may differ in a detail not shown here. Equal values may be shown once.

Experiment: Phase 1 single-ascending dose (Part 1): safety and tolerability in healthy adults
Type: in vivo, human
Experimental: This ongoing trial is a Phase 1 randomized, double-blind, placebo-controlled study in male and female healthy adult volunteers aged 18-55 years. All volunteers provided written, informed consent.
All volunteers were followed up for 4 weeks and safety and tolerability were continuously assessed throughout the study. All adverse events (AEs) were recorded from the time of consent to the completion visit and were graded using the DAIDS toxicity grading scale. Volunteers also underwent physical examinations, electrocardiograms, vital sign checks and clinical laboratory parameters (chemistry, haematology, urinalysis).

SMILES: CCCCOc1nc(N)c2[nH]cc(Cc3ccc(CN4CCCC4)cc3)c2n1 [Compound 4]
- lab toxicity: Cholesterol (mmol/L), upwards, Grade 2 (single dose 0.6 mg fasted): 0 n (%)
- lab toxicity: Creatine kinase (U/L), upwards, Grade 1 (single dose 0.6 mg fasted): 0 n (%)
- lab toxicity: Creatine kinase (U/L), upwards, Grade 2 (single dose 0.6 mg fasted): 1 (16.7%) n (%)
- lab toxicity: Creatine kinase (U/L), upwards, Grade 4 (single dose 0.6 mg fasted): 0 n (%)
- lab toxicity: Glucose (mmol/L), upwards, Grade 1 (single dose 0.6 mg fasted): 1 (16.7%) n (%)
- lab toxicity: Glucose (mmol/L), upwards, Grade 2 (single dose 0.6 mg fasted): 1 (16.7%) n (%)
- lab toxicity: LDL cholesterol (mmol/L, calculated), upwards, Grade 1 (single dose 0.6 mg fasted): 2 (33.3%) n (%)
- lab toxicity: LDL cholesterol (mmol/L, calculated), upwards, Grade 2 (single dose 0.6 mg fasted): 1 (16.7%) n (%)
- lab toxicity: LDL cholesterol (mmol/L, calculated), upwards, Grade 3 (single dose 0.6 mg fasted): 0 n (%)
- lab toxicity: Lymphocytes (giga/L), downwards, Grade 2 (single dose 0.6 mg fasted): 0 n (%)
- lab toxicity: Lymphocytes (giga/L), downwards, Grade 4 (single dose 0.6 mg fasted): 0 n (%)
- lab toxicity: Neutrophils, segmented (giga/L), downwards, Grade 1 (single dose 0.6 mg fasted): 0 n (%)
- lab toxicity: Neutrophils, segmented (giga/L), downwards, Grade 2 (single dose 0.6 mg fasted): 0 n (%)
- lab toxicity: Platelets (giga/L), downwards, Grade 1 (single dose 0.6 mg fasted): 0 n (%)
- lab toxicity: Sodium (mmol/L), upwards, Grade 1 (single dose 0.6 mg fasted): 2 (33.3%) n (%)
- lab toxicity: Sodium (mmol/L), upwards, Grade 2 (single dose 0.6 mg fasted): 1 (16.7%) n (%)
- lab toxicity: Triglycerides (mmol/L), upwards, Grade 1 (single dose 0.6 mg fasted): 4 (66.7%) n (%)
- lab toxicity: Triglycerides (mmol/L), upwards, Grade 2 (single dose 0.6 mg fasted): 0 n (%)
- lab toxicity: Triglycerides (mmol/L), upwards, Grade 3 (single dose 0.6 mg fasted): 0 n (%)
- lab toxicity: Urate (μmol/L), upwards, Grade 1 (single dose 0.6 mg fasted): 0 n (%)
- subjects with at least one AE (single dose 0.6 mg fasted): 3 (50.0%) n (%)
- subjects with at least one AE for which any study drug or study was permanently stopped (single dose 0.6 mg fasted): 0 n (%)
- subjects with at least one AE for which any study drug or study was temporarily stopped (single dose 0.6 mg fasted): 0 n (%)
- subjects with at least one AE possibly related to any study drug (single dose 0.6 mg fasted): 1 (16.7%) n (%)
- subjects with at least one AE possibly, probably or very likely related to any study drug (single dose 0.6 mg fasted): 1 (16.7%) n (%)
- subjects with at least one AE probably related to any study drug (single dose 0.6 mg fasted): 0 n (%)
- subjects with at least one AE very likely related to any study drug (single dose 0.6 mg fasted): 0 n (%)
- subjects with at least one SAE (single dose 0.6 mg fasted): 0 n (%)
- subjects with at least one fatal AE (single dose 0.6 mg fasted): 0 n (%)
- subjects with at least one grade 1 AE (single dose 0.6 mg fasted): 3 (50.0%) n (%)
- subjects with at least one grade 2 AE (single dose 0.6 mg fasted): 0 n (%)
- subjects with at least one grade 3 or 4 AE (single dose 0.6 mg fasted): 0 n (%)
- treatment-related AE: Any AE (single dose 0.6 mg fasted): 1 (16.7%) n (%)
- treatment-related AE: Chills (single dose 0.6 mg fasted): 0 n (%)
- treatment-related AE: Dizziness (single dose 0.6 mg fasted): 0 n (%)
- treatment-related AE: General disorders and administration site conditions (single dose 0.6 mg fasted): 0 n (%)
- treatment-related AE: Headache (single dose 0.6 mg fasted): 0 n (%)
- treatment-related AE: Hypertension (single dose 0.6 mg fasted): 0 n (%)
- treatment-related AE: Myalgia (single dose 0.6 mg fasted): 0 n (%)
- treatment-related AE: Nervous system disorders (single dose 0.6 mg fasted): 0 n (%)
- treatment-related AE: Oropharyngeal pain (single dose 0.6 mg fasted): 0 n (%)
- treatment-related AE: Pyrexia (single dose 0.6 mg fasted): 0 n (%)
- treatment-related AE: Respiratory, thoracic and mediastinal disorders (single dose 0.6 mg fasted): 1 (16.7%) n (%)
- treatment-related AE: Vascular disorder (single dose 0.6 mg fasted): 0 n (%)
- vital signs: Respiratory rate (brpm) Grade 1 (single dose 0.6 mg fasted): 3 (50.0%) n (%)
- vital signs: Respiratory rate (brpm) Grade 2 (single dose 0.6 mg fasted): 0 n (%)
- vital signs: SaO2 (%) 90% to <95% (single dose 0.6 mg fasted): 0 n (%)
- vital signs: SaO2 (%) 95% to <98% (single dose 0.6 mg fasted): 4 (66.7%) n (%)
- vital signs: Standing DBP (mmHg) Grade 1 (single dose 0.6 mg fasted): 0 n (%)
- vital signs: Standing DBP (mmHg) Grade 2 (single dose 0.6 mg fasted): 0 n (%)
- vital signs: Standing DBP (mmHg) Grade 3 (single dose 0.6 mg fasted): 0 n (%)
- vital signs: Standing DBP (mmHg) Low (single dose 0.6 mg fasted): 0 n (%)
- vital signs: Standing SBP (mmHg) Grade 1 (single dose 0.6 mg fasted): 1 (16.7%) n (%)
- vital signs: Standing SBP (mmHg) Low (single dose 0.6 mg fasted): 0 n (%)
- vital signs: Standing pulse (bpm) High (single dose 0.6 mg fasted): 0 n (%)
- vital signs: Standing pulse (bpm) Low (single dose 0.6 mg fasted): 0 n (%)
- vital signs: Supine DBP (mmHg) Grade 1 (single dose 0.6 mg fasted): 0 n (%)
- vital signs: Supine DBP (mmHg) Low (single dose 0.6 mg fasted): 1 (16.7%) n (%)
- vital signs: Supine SBP (mmHg) Grade 1 (single dose 0.6 mg fasted): 1 (16.7%) n (%)
- vital signs: Supine SBP (mmHg) Grade 2 (single dose 0.6 mg fasted): 0 n (%)
- vital signs: Supine SBP (mmHg) Low (single dose 0.6 mg fasted): 0 n (%)
- vital signs: Supine pulse (bpm) Low (single dose 0.6 mg fasted): 1 (16.7%) n (%)
- ↑ AST Grade 3 (laboratory abnormality) (single dose 0.6 mg fasted): 0 n (%)
- ↑ Amylase Grade 2 (laboratory abnormality) (single dose 0.6 mg fasted): 0 n (%)
- ↑ Cholesterol Grade 2 (laboratory abnormality) (single dose 0.6 mg fasted): 0 n (%)
- ↑ Creatine kinase Grade 2 (laboratory abnormality) (single dose 0.6 mg fasted): 1 (17) n (%)
- ↑ Creatine kinase Grade 4 (laboratory abnormality) (single dose 0.6 mg fasted): 0 n (%)
- ↑ Glucose Grade 2 (laboratory abnormality) (single dose 0.6 mg fasted): 1 (17) n (%)
- ↑ LDL cholesterol Grade 2 (laboratory abnormality) (single dose 0.6 mg fasted): 1 (17) n (%)
- ↑ LDL cholesterol Grade 3 (laboratory abnormality) (single dose 0.6 mg fasted): 0 n (%)
- ↑ Lipase Grade 2 (laboratory abnormality) (single dose 0.6 mg fasted): 0 n (%)
- ↑ Pancreatic amylase Grade 2 (laboratory abnormality) (single dose 0.6 mg fasted): 0 n (%)
- ↑ Potassium Grade 2 (laboratory abnormality) (single dose 0.6 mg fasted): 0 n (%)
- ↑ Sodium Grade 2 (laboratory abnormality) (single dose 0.6 mg fasted): 1 (17) n (%)
- ↑ Triglycerides Grade 2 (laboratory abnormality) (single dose 0.6 mg fasted): 0 n (%)
- ↑ Triglycerides Grade 3 (laboratory abnormality) (single dose 0.6 mg fasted): 0 n (%)
- ↓ Bicarbonate Grade 2 (laboratory abnormality) (single dose 0.6 mg fasted): 0 n (%)
- ↓ GFR Grade 2 (laboratory abnormality) (single dose 0.6 mg fasted): 0 n (%)
- ↓ Lymphocytes Grade 2 (laboratory abnormality) (single dose 0.6 mg fasted): 0 n (%)
- ↓ Lymphocytes Grade 4 (laboratory abnormality) (single dose 0.6 mg fasted): 0 n (%)
- ↓ Neutrophils Grade 2 (laboratory abnormality) (single dose 0.6 mg fasted): 0 n (%)
- ↓ Phosphate Grade 2 (laboratory abnormality) (single dose 0.6 mg fasted): 0 n (%)
- subjects with headache (AE) (single dose 1.25 mg): 4 (50.0%) n (%)
- subjects with myalgia (AE) (single dose 1.25 mg): 3 (37.5%) n (%)
- subjects with pyrexia (AE) (single dose 1.25 mg): 3 (37.5%) n (%)
- Any AE (treatment-emergent) (single dose 1.25 mg fasted): 8 (100) n (%)
- Back pain Grade 1 (treatment-emergent AE) (single dose 1.25 mg fasted): 1 (13) n (%)
- Chills Grade 1 (treatment-emergent AE) (single dose 1.25 mg fasted): 0 n (%)
- Contact dermatitis Grade 1 (treatment-emergent AE) (single dose 1.25 mg fasted): 0 n (%)
- Dizziness Grade 1 (treatment-emergent AE) (single dose 1.25 mg fasted): 0 n (%)
- ECG actual value: Heart rate (bpm) Low (single dose 1.25 mg fasted): 0 n (%)
- ECG actual value: QRS (ms) High (single dose 1.25 mg fasted): 1 (12.5%) n (%)
- ECG actual value: QTcB (ms) ]450; 480] (single dose 1.25 mg fasted): 1 (12.5%) n (%)
- ECG actual value: QTcF (ms) ]450; 480] (single dose 1.25 mg fasted): 1 (12.5%) n (%)
- ECG change from reference: QTcB (ms) [30; 60] (single dose 1.25 mg fasted): 3 (37.5%) n (%) and 3 (37.5%)^a n (%)
- ECG change from reference: QTcF (ms) [30; 60] (single dose 1.25 mg fasted): 1 (12.5%) n (%) and 1 (12.5%)^a n (%)
- Headache Grade 1 (treatment-emergent AE) (single dose 1.25 mg fasted): 4 (50) n (%)
- Headache Grade 2 (treatment-emergent AE) (single dose 1.25 mg fasted): 0 n (%)
- Hypertension Grade 1 (treatment-emergent AE) (single dose 1.25 mg fasted): 0 n (%)
- Hypertension Grade 2 (treatment-emergent AE) (single dose 1.25 mg fasted): 0 n (%)
- Myalgia Grade 1 (treatment-emergent AE) (single dose 1.25 mg fasted): 3 (38) n (%)
- Oropharyngeal pain Grade 1 (treatment-emergent AE) (single dose 1.25 mg fasted): 2 (25) n (%)
- Pyrexia Grade 1 (treatment-emergent AE) (single dose 1.25 mg fasted): 2 (25) n (%)
- Pyrexia Grade 2 (treatment-emergent AE) (single dose 1.25 mg fasted): 1 (13) n (%)
- URTI Grade 1 (treatment-emergent AE) (single dose 1.25 mg fasted): 2 (25) n (%)
- lab toxicity: Amylase (U/L), upwards, Grade 1 (single dose 1.25 mg fasted): 1 (12.5%) n (%)
- lab toxicity: Amylase (U/L), upwards, Grade 2 (single dose 1.25 mg fasted): 0 n (%)
- lab toxicity: Cholesterol (mmol/L), upwards, Grade 1 (single dose 1.25 mg fasted): 1 (12.5%) n (%)
- lab toxicity: Cholesterol (mmol/L), upwards, Grade 2 (single dose 1.25 mg fasted): 0 n (%)
- lab toxicity: Creatine kinase (U/L), upwards, Grade 1 (single dose 1.25 mg fasted): 0 n (%)
- lab toxicity: Creatine kinase (U/L), upwards, Grade 2 (single dose 1.25 mg fasted): 0 n (%)
- lab toxicity: Creatine kinase (U/L), upwards, Grade 4 (single dose 1.25 mg fasted): 0 n (%)
- lab toxicity: Glucose (mmol/L), upwards, Grade 1 (single dose 1.25 mg fasted): 3 (37.5%) n (%)
- lab toxicity: Glucose (mmol/L), upwards, Grade 2 (single dose 1.25 mg fasted): 1 (12.5%) n (%)
- lab toxicity: LDL cholesterol (mmol/L, calculated), upwards, Grade 1 (single dose 1.25 mg fasted): 0 n (%)
- lab toxicity: LDL cholesterol (mmol/L, calculated), upwards, Grade 2 (single dose 1.25 mg fasted): 0 n (%)
- lab toxicity: LDL cholesterol (mmol/L, calculated), upwards, Grade 3 (single dose 1.25 mg fasted): 1 (12.5%) n (%)
- lab toxicity: Lymphocytes (giga/L), downwards, Grade 2 (single dose 1.25 mg fasted): 1 (12.5%) n (%)
- lab toxicity: Lymphocytes (giga/L), downwards, Grade 4 (single dose 1.25 mg fasted): 0 n (%)
- lab toxicity: Neutrophils, segmented (giga/L), downwards, Grade 1 (single dose 1.25 mg fasted): 2 (25.0%) n (%)
- lab toxicity: Neutrophils, segmented (giga/L), downwards, Grade 2 (single dose 1.25 mg fasted): 0 n (%)
- lab toxicity: Platelets (giga/L), downwards, Grade 1 (single dose 1.25 mg fasted): 1 (12.5%) n (%)
- lab toxicity: Sodium (mmol/L), upwards, Grade 1 (single dose 1.25 mg fasted): 2 (25.0%) n (%)
- lab toxicity: Sodium (mmol/L), upwards, Grade 2 (single dose 1.25 mg fasted): 1 (12.5%) n (%)
- lab toxicity: Triglycerides (mmol/L), upwards, Grade 1 (single dose 1.25 mg fasted): 3 (37.5%) n (%)
- lab toxicity: Triglycerides (mmol/L), upwards, Grade 2 (single dose 1.25 mg fasted): 4 (50.0%) n (%)
- lab toxicity: Triglycerides (mmol/L), upwards, Grade 3 (single dose 1.25 mg fasted): 0 n (%)
- lab toxicity: Urate (μmol/L), upwards, Grade 1 (single dose 1.25 mg fasted): 0 n (%)
- subjects with Grade 2 treatment-related AEs (pyrexia) (single dose 1.25 mg fasted): 1 (12.5%) n (%)
- subjects with at least one AE (single dose 1.25 mg fasted): 8 (100%) n (%)
- subjects with at least one AE for which any study drug or study was permanently stopped (single dose 1.25 mg fasted): 1 (12.5%) n (%)
- subjects with at least one AE for which any study drug or study was temporarily stopped (single dose 1.25 mg fasted): 0 n (%)
- subjects with at least one AE possibly related to any study drug (single dose 1.25 mg fasted): 5 (62.5%) n (%)
- subjects with at least one AE possibly, probably or very likely related to any study drug (single dose 1.25 mg fasted): 6 (75.0%) n (%)
- subjects with at least one AE probably related to any study drug (single dose 1.25 mg fasted): 3 (37.5%) n (%)
- subjects with at least one AE very likely related to any study drug (single dose 1.25 mg fasted): 0 n (%)
